Measurements from US5672594A, “L-erythrosyl nucleosides” (Genencor International, Inc., priority 1994, dated 1997).
Converted amounts (≈) assume the structure as drawn. Where two headings read alike, the source gives them in different places.

What was measured:
[1] = In vitro growth inhibition/survival, bone marrow control cells (radiometric BACTEC); format: cell-based; conditions: human, continuous exposure (10, 1 and 0.1 μg/ml tested; concentration of this value not given)
Excerpt: (§1) CELL LINES: Eight different established human cell lines CALU (lung), COLO320 (colon), H578St (breast), HT-29 (colon), MCF-7 (breast), OM-1 (colon), SKLU (lung) and SKMES (lung), and two control cell lines (bone marrow andr fibroblasts) were utilized.
(§2) All cell lines were obtained from the Tumor Cloning Laboratory, Institute for Drug Development, Cancer Therapy and Research Center, San Antonio, Tex. All cell lines grew as monolayers in the appropriate culture medium supplemented with heat-inactivated calf serum. All reagents were obtained from Grand Island Biological Co., Grand Island, N.Y.
(§3) The iv formulations of the compounds of the present invention were prepared with sterile buffered saline and stored at -70° C. until required for testing.
(§4) Following trypsinization, tumor cells were suspended in tissue culture medium and exposed to the antitumor agents continuously at three different concentrations: 10, 1 and 0.1 μg/ml.
(§5) RADIOMETRIC MEASUREMENT OF GROWTH INHIBITION: Growth inhibition was assessed with the BACTEC System 460 (Johnston Laboratories, Towson, Md.) after addition of the antitumor agent in the respective growth medium containing ^14 C-glucose at a final concentration of 2 μCi/ml.
Two mls of the tumor cell suspension containing radioactive glucose were seeded into sterile, disposable 15 ml vials by injection through self-sealing rubber-aluminum caps. […]

CALU (lung) = test: In vitro growth inhibition of CALU tumor cells (radiometric BACTEC); format: cell-based, human; conditions: for IC50: Homo sapiens
Excerpt: as §1, §2, §3, §4, §5
(§6) Two mls of the tumor cell suspension containing radioactive glucose were seeded into sterile, disposable 15 ml vials by injection through self-sealing rubber-aluminum caps. […] The seeded vials were then incubated at 37° C. Measurement of the release of ^14 CO2 resulting from the metabolism of ^14 C-glucose were performed on days 6, 9, 12, and 15 in the BACTEC instrument. This instrument flushes the ^14 CO2 containing air out of the vials into an ionization chamber that converts dpm to growth index values. […] Each data point represents triplicate values.
(§7) All compounds were dosed on an equimilimolar basis. […] [formula]

MCF-7 (breast) = test: In vitro growth inhibition of MCF-7 tumor cells (radiometric BACTEC); format: cell-based, human; conditions: for IC50: Homo sapiens, MCF7
Excerpt: as §1, §2, §3, §4, §5, §6, §7

SKMES (lung) = test: In vitro growth inhibition of SKMES tumor cells (radiometric BACTEC); format: cell-based, human; conditions: for IC50: Homo sapiens
Excerpt: as §1, §2, §3, §4, §5, §6, §7

COLO320 (colon) = test: In vitro growth inhibition of COLO320 tumor cells (radiometric BACTEC); format: cell-based; conditions: Homo sapiens, COLO 320, concentration required to kill 50% of the untreated cancer cells
Excerpt: as §1
as §2, with “N.Y. […]” for “N.Y.”
(§8) RADIOMETRIC MEASUREMENT OF GROWTH INHIBITION: Growth inhibition was assessed with the BACTEC System 460 (Johnston Laboratories, Towson, Md.) after addition of the antitumor agent in the respective growth medium containing ^14 C-glucose at a final concentration of 2 μCi/ml. […]
(§9) Two mls of the tumor cell suspension containing radioactive glucose were seeded into sterile, disposable 15 ml vials by injection through self-sealing rubber-aluminum caps. […] Chemotherapy sensitivity was calculated by comparing the growth index values of drug-treated vials to that observed in control vials. […]
(§10) The data presented in Table I are compared to results achieved with 5-FU as the control. […] In this regard, a therapeutic ratio for a given compound is typically determined by the following calculation. […]

HS578T (breast) = test: In vitro growth inhibition of HS578T tumor cells (radiometric BACTEC); format: cell-based; conditions: Homo sapiens, Hs-578T, concentration required to kill 50% of the untreated cancer cells
Excerpt: as §1
as §2, with “N.Y. […]” for “N.Y.”
as §8, §9, §10

HT29 (colon) = test: In vitro growth inhibition of HT29 tumor cells (radiometric BACTEC); format: cell-based; conditions: Homo sapiens, HT-29, concentration required to kill 50% of the untreated cancer cells
Excerpt: as §1
as §2, with “N.Y. […]” for “N.Y.”
as §8, §9, §10

OM-1 (colon) = test: In vitro growth inhibition of OM-1 tumor cells (radiometric BACTEC); format: cell-based; conditions: Homo sapiens, concentration required to kill 50% of the untreated cancer cells
Excerpt: as §1
as §2, with “N.Y. […]” for “N.Y.”
as §8, §9, §10

SKLU (lung) = test: In vitro growth inhibition of SKLU tumor cells (radiometric BACTEC); format: cell-based; conditions: Homo sapiens, concentration required to kill 50% of the untreated cancer cells
Excerpt: as §1
as §2, with “N.Y. […]” for “N.Y.”
as §8, §9, §10

[2] = known drug, background; cited from earlier work

Structure (SMILES)	viability [1] [%]	% SURVIVAL TUMOR (CALU (lung); CALU, continuous exposure (10, 1 and 0.1 μg/ml tested; concentration of this value not given)) [%]	IC50 (CALU (lung); CALU, concentration required to kill 50% of the untreated cancer cells, read-out: IC 50) [µg/mL]	IC50 (MCF-7 (breast); MCF-7, concentration required to kill 50% of the untreated cancer cells, read-out: IC 50) [µg/mL]	% SURVIVAL TUMOR (MCF-7 (breast); MCF-7, continuous exposure, concentration of this value not given) [%]	IC50 (SKMES (lung); SKMES, concentration required to kill 50% of the untreated cancer cells, read-out: IC 50) [µg/mL]	% SURVIVAL TUMOR (SKMES (lung); SKMES, continuous exposure, concentration of this value not given) [%]	IC50 (CALU (lung)) [µg/mL]	IC50 (COLO320 (colon)) [µg/mL]	IC50 (HS578T (breast)) [µg/mL]	IC50 (HT29 (colon)) [µg/mL]	IC50 (MCF-7 (breast)) [µg/mL]	IC50 (OM-1 (colon)) [µg/mL]	IC50 (SKLU (lung)) [µg/mL]	IC50 (SKMES (lung)) [µg/mL]	side effects [2]
O=c1[nH]c(=O)n([C@@H]2OC[C@H](O)[C@@H]2O)cc1F [α-L-erythrofuranosyl-5-fluorouracil]	104	85.3	> 10	> 10	52.7	> 10	67.4	–	–	–	–	–	–	–	–	–
O=c1[nH]cc(F)c(=O)[nH]1 [5-FU, 5-fluorouracil]	38.6	–	–	–	–	–	–	< 0.6	< 0.6	> 0.6	0.613 (≈ 4.71 µM)	< 0.6	1.47 (≈ 11.3 µM)	1.05 (≈ 8.06 µM)	< 0.6	nausea, vomiting, diarrhea, leukopenia, thrombocytopenia, alopecia
